Data published in US6737383B1, “Herbicidal oxadiazolidines” (priority 1999, dated 2004).

How the values were obtained:
purple nutsedge = assay: Test B pre/postemergence purple nutsedge; assay type: in vivo, Cyperus rotundus
Summary of the method: (§1)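 Herbicidal effect was estimated by eye on a ten-point control scale after plants spent twelve to sixteen days in a greenhouse following soil or foliar treatment. Foliar sprays targeted plants at one to four leaves; all doses were formulated in a non-phytotoxic solvent with surfactant.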

cocklebur = assay: Test B pre/postemergence cocklebur; assay type: in vivo, Xanthium strumarium
Summary of the method: as §1

smallflower flatsedge = assay: Test B flood test smallflower flatsedge; assay type: in vivo, Cyperus difformis
Summary of the method: (§2)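 Plants were grown to the 2-leaf stage before treatment with test chemical, then held in a greenhouse for twelve to sixteen days. Injury was visually rated against untreated controls on a 0–10 scale, where 0 is no effect and 10 is complete control.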

sugar beet = assay: Test B pre/postemergence sugar beet; assay type: in vivo, Beta vulgaris
Summary of the method: as §1

corn = assay: Test B pre/postemergence corn; assay type: in vivo, Zea mays
Summary of the method: as §1

wild oat = assay: Test B pre/postemergence wild oat; assay type: in vivo, Avena fatua
Summary of the method: as §1

rice = assay: Test B flood test rice; assay type: in vivo, Oryza sativa
Summary of the method: as §2

surinam grass = assay: Test B pre/postemergence surinam grass; assay type: in vivo, Brachiaria decumbens
Summary of the method: as §1

duck salad = assay: Test B flood test duck salad; assay type: in vivo, Heteranthera limosa
Summary of the method: as §2

crabgrass = assay: Test B pre/postemergence crabgrass; assay type: in vivo, Digitaria sanguinalis
Summary of the method: as §1

giant foxtail = assay: Test B pre/postemergence giant foxtail; assay type: in vivo, Setaria faberii
Summary of the method: as §1

morningglory = assay: Test B pre/postemergence morningglory; assay type: in vivo, Ipomoea hederacea
Summary of the method: as §1

rape = assay: Test B pre/postemergence rape; assay type: in vivo, Brassica napus
Summary of the method: as §1

pigweed = assay: Test B pre/postemergence pigweed; assay type: in vivo, Amaranthus retroflexus
Summary of the method: as §1

soybean = assay: Test B pre/postemergence soybean; assay type: in vivo, Glycine max
Summary of the method: as §1

bamyardgrass = assay: Test B flood test barnyardgrass; assay type: in vivo, Echinochloa crus-galli
Summary of the method: as §2

[1] = Postemergence, Rate 62 g/ha, scale of 0 to 10, 0 is no effect, 10 is complete control
[2] = Postemergence, Rate 125 g/ha, scale 0 to 10, 0 is no effect, 10 is complete control
[3] = Preemergence, Rate 62 g/ha, scale of 0 to 10 where 0 is no effect and 10 is complete control
[4] = Preemergence, Rate 125 g/ha, scale 0 to 10, 0 is no effect, 10 is complete control
[5] = Preemergence, Rate 500 g/ha, scale of 0 to 10 where 0 is no effect and 10 is complete control
[6] = Postemergence, Rate 500 g/ha, scale 0 to 10, 0 is no effect, 10 is complete control
[7] = Rate 250 g/ha, Postemergence, scale of 0 to 10 where 0 is no effect and 10 is complete control
[8] = Rate 62 g/ha, flood test species, Pre-emergence, visual evaluation after twelve to sixteen days
[9] = Rate 125 g/ha, under heading Pre-emergence, flood test species, visual evaluation after twelve to sixteen days
[10] = Rate 250 g/ha, Pre-emergence (flood test species), scale 0 to 10, 0 is no effect, 10 is complete control
[11] = Rate 500 g/ha, Pre-emergence section of Table B, 0 to 10 scale (0 no effect, 10 complete control)

Compound: CC(C)N(C(=O)n1oc(=O)n(CCC2OCCCO2)c1=O)c1ccc(Cl)cc1 [Compound 532]
- Nutsedge plant response rating (purple nutsedge; [1]): 4
- Nutsedge plant response rating (purple nutsedge; [2]): 0
- Plant response rating, Nutsedge (purple nutsedge; [3]): 0
- Nutsedge plant response rating (purple nutsedge; [4]): 0
- Nutsedge plant response rating (0 to 10 scale) (purple nutsedge; Preemergence, Rate 250 g/ha): 0
- Nutsedge plant response rating (purple nutsedge; [5]): 0
- Cocklebur plant response rating (cocklebur; [1]): 0
- Cocklebur plant response rating (cocklebur; [2]): 0
- Plant response rating, Cocklebur (cocklebur; [6]): 4
- Plant response rating, Cocklebur (cocklebur; [3]): 0
- Cocklebur plant response rating (cocklebur; [4]): 0
- Cocklebur plant response rating (0 to 10 scale) (cocklebur; Preemergence, Rate 250 g/ha): 0
- Cocklebur plant response rating (cocklebur; [5]): 0
- Plant response rating, Cocklebur (cocklebur; [7]): 2
- Plant response rating, S. Flatsedge (0 to 10 scale, 0 is no effect, 10 is complete control) (smallflower flatsedge; [8]): 9
- S. Flatsedge plant response rating (0 to 10 scale, 0 is no effect, 10 is complete control) (smallflower flatsedge; [9]): 8
- S. Flatsedge plant response rating (smallflower flatsedge; [10]): 9
- S. Flatsedge plant response rating (smallflower flatsedge; [11]): 9
- Sugarbeets plant response rating (sugar beet; [1]): 0
- Sugarbeets plant response rating (sugar beet; [2]): 0
- Plant response rating, Sugarbeets (sugar beet; [6]): 0
- Plant response rating, Sugarbeets (sugar beet; [3]): 0
- Sugarbeets plant response rating (sugar beet; [4]): 2
- Sugarbeets plant response rating (0 to 10 scale) (sugar beet; Preemergence, Rate 250 g/ha): 2
- Sugarbeets plant response rating (sugar beet; [5]): 3
- Plant response rating, Sugarbeets (sugar beet; [7]): 0
- Corn plant response rating (corn; [1]): 2
- Corn plant response rating (corn; [2]): 0
- Plant response rating, Corn (corn; [6]): 2
- Plant response rating, Corn (corn; [3]): 0
- Corn plant response rating (corn; [4]): 0
- Corn plant response rating (0 to 10 scale) (corn; Preemergence, Rate 250 g/ha): 0
- Corn plant response rating (corn; [5]): 0
- Plant response rating, Corn (corn; [7]): 0
- Wild oats plant response rating (wild oat; [1]): 0
- Wild oats plant response rating (wild oat; [2]): 0
- Plant response rating, Wild oats (wild oat; [6]): 0
- Plant response rating, Wild oats (wild oat; [3]): 0
- Wild oats plant response rating (wild oat; [4]): 0
- Wild oats plant response rating (0 to 10 scale) (wild oat; Preemergence, Rate 250 g/ha): 0
- Wild oats plant response rating (wild oat; [5]): 0
- Plant response rating, Wild oats (wild oat; [7]): 0
- Plant response rating, Rice (0 to 10 scale, 0 is no effect, 10 is complete control) (rice; [8]): 0
- Rice plant response rating (0 to 10 scale, 0 is no effect, 10 is complete control) (rice; [9]): 1
- Rice plant response rating (rice; [10]): 9
- Rice plant response rating (rice; [11]): 8
- B. signalgrass plant response rating (surinam grass; [1]): 0
- B. signalgrass plant response rating (surinam grass; [2]): 0
- Plant response rating, B. signalgrass (surinam grass; [6]): 0
- Plant response rating, B. signalgrass (surinam grass; [3]): 0
- B. signalgrass plant response rating (surinam grass; [4]): 0
- B. signalgrass plant response rating (0 to 10 scale, 0 is no effect, 10 is complete control) (surinam grass; Preemergence, Rate 250 g/ha): 0
- B. signalgrass plant response rating (surinam grass; [5]): 0
- Plant response rating, B. signalgrass (surinam grass; [7]): 0
- Plant response rating, Ducksalad (0 to 10 scale, 0 is no effect, 10 is complete control) (duck salad; [8]): 8
- Ducksalad plant response rating (0 to 10 scale, 0 is no effect, 10 is complete control) (duck salad; [9]): 8
- Ducksalad plant response rating (duck salad; [10]): 9
- Ducksalad plant response rating (duck salad; [11]): 9
- Crabgrass plant response rating (crabgrass; [1]): 4
- Crabgrass plant response rating (crabgrass; [2]): 4
- Plant response rating, Crabgrass (crabgrass; [6]): 9
- Plant response rating, Crabgrass (crabgrass; [3]): 9
- Crabgrass plant response rating (crabgrass; [4]): 9
- Crabgrass plant response rating (0 to 10 scale) (crabgrass; Preemergence, Rate 250 g/ha): 10
- Crabgrass plant response rating (crabgrass; [5]): 10
- Plant response rating, Crabgrass (crabgrass; [7]): 7
- Giant foxtail plant response rating (giant foxtail; [1]): 0
- Giant foxtail plant response rating (giant foxtail; [2]): 4
- Plant response rating, Giant foxtail (giant foxtail; [6]): 8
- Plant response rating, Giant foxtail (giant foxtail; [3]): 10
- Giant foxtail plant response rating (giant foxtail; [4]): 10
- Giant foxtail plant response rating (0 to 10 scale) (giant foxtail; Preemergence, Rate 250 g/ha): 10
- Giant foxtail plant response rating (giant foxtail; [5]): 10
- Plant response rating, Giant foxtail (giant foxtail; [7]): 4
- Morningglory plant response rating (morningglory; [1]): 0
- Morningglory plant response rating (morningglory; [2]): 3
- Plant response rating, Morningglory (morningglory; [6]): 5
- Plant response rating, Morningglory (morningglory; [3]): 0
- Morningglory plant response rating (morningglory; [4]): 0
- Morningglory plant response rating (0 to 10 scale) (morningglory; Preemergence, Rate 250 g/ha): 0
- Morningglory plant response rating (morningglory; [5]): 0
- Plant response rating, Morningglory (morningglory; [7]): 5
- Rape plant response rating (rape; [1]): 0
- Rape plant response rating (rape; [2]): 0
- Plant response rating, Rape (rape; [6]): 2
- Plant response rating, Rape (rape; [3]): 0
- Rape plant response rating (rape; [4]): 0
- Rape plant response rating (0 to 10 scale) (rape; Preemergence, Rate 250 g/ha): 0
- Rape plant response rating (rape; [5]): 0
- Plant response rating, Rape (rape; [7]): 2
- Redroot pigweed plant response rating (pigweed; [1]): 0
- Redroot pigweed plant response rating (pigweed; [2]): 0
- Plant response rating, Redroot pigweed (pigweed; [6]): 2
- Plant response rating, Redroot pigweed (pigweed; [3]): 0
- Redroot pigweed plant response rating (pigweed; [4]): 0
- Redroot pigweed plant response rating (0 to 10 scale) (pigweed; Preemergence, Rate 250 g/ha): 0
- Redroot pigweed plant response rating (pigweed; [5]): 0
- Plant response rating, Redroot pigweed (pigweed; [7]): 0
- Soybean plant response rating (soybean; [1]): 0
- Soybean plant response rating (soybean; [2]): 2
- Plant response rating, Soybean (soybean; [6]): 5
- Plant response rating, Soybean (soybean; [3]): 0
- Soybean plant response rating (soybean; [4]): 0
- Soybean plant response rating (0 to 10 scale) (soybean; Preemergence, Rate 250 g/ha): 0
- Soybean plant response rating (soybean; [5]): 0
- Plant response rating, Soybean (soybean; [7]): 5
- Plant response rating, Barnyardgrass (0 to 10 scale, 0 is no effect, 10 is complete control) (bamyardgrass; [8]): 0
- Barnyardgrass plant response rating (0 to 10 scale, 0 is no effect, 10 is complete control) (bamyardgrass; [9]): 0
- Barnyardgrass plant response rating (bamyardgrass; [10]): 9
- Barnyardgrass plant response rating (bamyardgrass; [11]): 9
